Assay [1] has as its system oregano clonal line 0-4. Type of assay: cell-based. The note with it: ± SD; for RA Levels: 30 days (Example 3). The procedure: (§1) A mucoid, non-pathogenic Pseudomonas sp. strain was isolated as a contaminant of an oregano shoot culture. This Pseudomonas sp. was termed strain F. This strain was used in selecting Pseudomonas tolerant clonal lines. Strain F was grown on yeast extract-mannitol medium (Difco, Inc., Detroit, Mich.) until the inoculum density was about 10^9 colony forming units/mL. The bacterial suspension was diluted 100-fold in sterile distilled water and about 2.5 ml was dispensed into petri plates. Individual shoots of each clonal line at about 30 days of subculture were removed by cutting at the basal end and then inoculated by dipping the cut end into the diluted bacterial suspension. Inoculated shoots were then transferred to half-strength hormone-free MS medium, which induces root formation, and incubated in a growth room at 23° C., on a 16/8 hours day/night schedule. About 40 shoots of each clone were inoculated. Control shoots of each clonal line were transferred to the same medium, but were not exposed to bacteria.
(§2) Samples of Pseudomonas-treated and untreated control shoots from each line were assayed for rosmarinic acid content and proline content. Rosmarinic acid was extracted from 50 mg of fresh shoot tissue using 2 ml of 50% (v/v) methanol and incubating for 1 hour at 55° C. One ml of the methanol extract was diluted 1:18 and the absorbance of the diluted extract was measured at 333 nm in a Genesys spectrophotometer (Spectronic Instruments, Rochester, N.Y.). The concentration of RA in the extract was calculated using an extinction coefficient of ε333=19,000 τmol^−1cm^−1. Values for the concentration of RA for each treatment/clonal line shown in the Tables and Figures of this application are the average of at least 5 separate extracts. Total rosmarinic acid content was expressed as % g/g fresh weight (FW) of tissue.
(§3) Individual shoot tissue propagules of each clonal line were transferred to half strength hormone-free MS medium supplemented with 100 μM A2C. RA content, proline content, and morphological abnormalities were determined as described in Example 1.
(§4) Shoot tissue from oregano lines 0-4 and 0-5 was also cultured in the presence of A2C for 30 days. Samples of treated and control shoots were then assayed for RA content on a fresh weight basis and for morphological abnormalities.
(§5) Individual shoot tissue propagules of each clonal line were transferred to half strength hormone-free MS medium supplement with A2C. RA content and morphological abnormalities were determined as described in Example 1.

For the next assay, the system named is oregano clonal line 0-5. Type of assay: cell-based. The note with it: for RA Levels: 30 days (Example 3). As to the method:
as §1, §2, §3, §4, §5

A further assay concerns thyme clonal line M-3. Put plainly: RA content of shoot propagules, thyme clonal line M-3. Type of assay: cell-based. Conditions: 30 to 45 days. The procedure:
as §2
(§6) Three clonal thyme lines and five rosemary clonal lines were isolated and maintained in culture as described in U.S. application Ser. No. 08/771,241, filed Dec. 20, 1996 and incorporated herein by reference.
(§7) Individual shoot propagules of each clonal line were transferred to half-strength hormone-free MS media supplemented with A2C and cultured for 30 to 45 days. RA content and morphological abnormalities were determined at the end of the culture period as described in Example 1.

For the next assay, the system named is rosemary clonal line R-1. Put plainly: RA content of shoot propagules, rosemary clonal line R-1. Type of assay: cell-based. The note with it: 30 to 45 days. The procedure:
as §2, §6, §7

The next assay deals with rosemary clonal line R-7. Put plainly: RA content of shoot propagules, rosemary clonal line R-7. Conditions: 30 to 45 days, ± SD. Type of assay: cell-based. The procedure:
as §2, §6, §7

Assay [2] concerns rosemary clonal line R-16. Put plainly: RA content of shoot propagules, rosemary clonal line R-16. The class given is cell-based. The note with it: 30 to 45 days. The procedure: as §2, §6, §7
The subject of assay [3] is rosemary clonal line R-35. Put plainly: RA content of shoot propagules, rosemary clonal line R-35. Type of assay: cell-based. The note with it: 30 to 45 days, ± SD. As to the method:
as §2, §6, §7

Assay [4] concerns Glucose-6-phosphate dehydrogenase (G-6-PDH). The class given is cell-based, oregano. Conditions: A2C 50 μM. The procedure:
These enzymes are involved in synthesis of phenolic secondary metabolites (PAL) and in the pentose phosphate pathway (G-6-PDH).
One gm fresh weight of leaves were ground to a powder in liquid nitrogen, and homogenized in 0.1 M Tris-HCl buffer (pH 7.4) containing 1 mM phenylmethyl-sulfonyl fluoride (PMSF), 0.1% polyvinylpyrrolidone (PVP, to remove phenolics and polysaccharides) and 1 mM dithiothreitol (DTT). Extracts were centrifuged at 15,000×g for 20 minutes, and supernatants (5 ml) were partially purified through a PD 10 column (Pharmacia, Inc., NJ). Protein was eluted from the column using 5 ml of 0.1 M Tris-HCl, pH 8.5, which is close to the pH optimum of plant glucose-6-phosphate dehydrogenase (pH 8.0-8.2) and PAL (pH 8.8).
Glucose-6-phosphate dehydrogenase activity in the protein extract was measured spectrophotometrically by following the change in absorbance at 340 nm in the presence of saturating amounts of glucose-6-phosphate (2mM) and NADP (5 μM) in 0.1 M Tris-HCl, pH 8.0. One unit of glucose-6-phosphate dehydrogenase was defined as the amount of enzyme causing the reduction of 1 μmol of NADP^+ per minute. Specific activity was expressed as units per milligram of protein.

The subject of assay [5] is oregano clonal line 0-4. Put plainly: Morphological abnormalities / tolerance of cultured shoots, oregano line 0-4. Type of assay: cell-based. Conditions: line 0-4 cultured in the presence of 100 μM azetidine-2-carboxylic acid. As to the method:
Pseudomonas tolerance of Pseudomonas-treated shoots was determined by visual observation with a stereomicroscope (Olympus-SZ40, Tokyo, Japan) at a magnification of 34X. Cultured shoots were evaluated for morphological abnormalities, including malformation, necrosis, and chlorophyll deficiency. The response of individual tissue propagules to Pseudomonas contact was similar within each line, i.e., there was little or no variation among tissue propagules within each line.
as §4

The next assay relates to oregano clonal lines. Put plainly: Selection for A2C tolerance: RA content of about 100 oregano clonal lines. The class given is cell-based. The note with it: small fraction of about 100 oregano lines, 200 μM A2C, 30 days. As to the method: as §2
About 100 oregano clonal lines are initiated as described in Example 1. Lines are maintained on MS medium containing BAP as described in Example 1. At the end of a subculture cycle, 50 shoot propagules of each clonal line are transferred to half-strength hormone-free MS medium containing 200 μM A2C. Propagules are then cultured for 30 days as described in Example 1, and assayed for RA content as described in Example 1. Total phenolic content is measured as described in U.S. application Ser. No. 08/771,241, filed Dec. 20, 1996, incorporated herein by reference.

The source of these data is patent publication US20010012631A1, “Plant clonal lines and plants having elevated secondary metabolite levels” (University of Massachusetts Medical Center, a Massachusetts …, priority 1997, published 2001).

Where “and” joins values, the source holds several entries; their conditions need not be identical. Equal values may be shown once. Read-outs that look alike come from different tables or passages of the source.

As to `O=C(O)C1CCN1` (centres unmarked) [A2C, azetidine-2-carboxylic acid], the RA is 4.3 mg/g FW and 4.3 ± 0.7 mg/g FW with oregano clonal line 0-4 [1] (line 0-4, 100 μM A2C, day 30 (Example 2)); 3.2 mg/g FW and 3.2 ± 0.4 mg/g FW in the assay with oregano clonal line 0-5 (line 0-5, 100 μM A2C, 30 days, remaining tissue portions (primarily shoot tips) (Example 2), ± SD). In addition, the “RA Levels” value in the assay on oregano clonal line 0-4 [1] (line 0-4, A2C 100 μM) was 6.4 ± 0.8 mg/g FW; in the assay on oregano clonal line 0-4 [1] (line 0-4, A2C 200 μM) it was 6.8 ± 0.7 mg/g FW; with oregano clonal line 0-5 (line 0-5, A2C 100 μM, ± SD), 3.1 ± 0.5 mg/g FW; with oregano clonal line 0-5 (line 0-5, A2C 200 μM), “inhibited”; in the assay on thyme clonal line M-3 (thyme M-3, A2C 100 μM, ± SD) it was 2.4 ± 0.5 mg/g FW; in the assay on thyme clonal line M-3 (thyme M-3, A2C 200 μM) it was “inhibited”. In addition, the “RA Levels” value in the assay on rosemary clonal line R-1 (rosemary R-1, A2C 100 μM, ± SD) is reported as 4.9 ± 0.5 mg/g FW; in the assay on rosemary clonal line R-1 (rosemary R-1, A2C 200 μM), “inhibited”; with rosemary clonal line R-7 (rosemary R-7, A2C 100 μM) it was 6.8 ± 1.1 mg/g FW; in the assay on rosemary clonal line R-7 (rosemary R-7, A2C 200 μM), 7.9 ± 2.0 mg/g FW; in assay [2] (rosemary R-16, A2C 100 μM, ± SD), 10.4 ± 1.9 mg/g FW; in [2] (rosemary R-16, A2C 200 μM) it was “inhibited”. Moreover, the “RA Levels” value amounted to 12.1 ± 1.4 mg/g FW in [3] (rosemary R-35, A2C 100 μM) and 10.9 ± 0.9 mg/g FW in assay [3] (rosemary R-35, A2C 200 μM). In addition, the G-6-PDH specific activity is 1.47 μmoles NADPH/min/mg protein in assay [4] (10 days of culture treatment) and 1.23 μmoles NADPH/min/mg protein in assay [4] (25 days of culture treatment). For the same compound, in the assay on oregano clonal line 0-4 [5], the morphological abnormalities entry is reported as “no morphological abnormalities”. Further, the “increase in RA content on a fresh weight basis vs tissue cultured in the absence of A2C” value in the assay on oregano clonal lines was “at least 2 fold”.
